Data: ChEMBL document CHEMBL6071142, “Isoalantolactone/hydroxamic acid hybrids as potent dual STAT3/HDAC inhibitors and self-assembled nanoparticles for cancer therapy” (Eur J Med Chem, 2024)
Activity calls are given as the source filed them. The rule behind the calls is not given here.

Assays:
[1] = biological target: T1, Signal transducer and activator of transcription 3 (Homo sapiens, UniProt P40763); experiment: Inhibition of STAT3 phosphorylation in human A549 cells at 0.1 to 8 uM incubated for 12 hrs by Western blot analysis; type: cell-based; details: dose 0.1-8 µM
T1 sequence (P40763 whole entry): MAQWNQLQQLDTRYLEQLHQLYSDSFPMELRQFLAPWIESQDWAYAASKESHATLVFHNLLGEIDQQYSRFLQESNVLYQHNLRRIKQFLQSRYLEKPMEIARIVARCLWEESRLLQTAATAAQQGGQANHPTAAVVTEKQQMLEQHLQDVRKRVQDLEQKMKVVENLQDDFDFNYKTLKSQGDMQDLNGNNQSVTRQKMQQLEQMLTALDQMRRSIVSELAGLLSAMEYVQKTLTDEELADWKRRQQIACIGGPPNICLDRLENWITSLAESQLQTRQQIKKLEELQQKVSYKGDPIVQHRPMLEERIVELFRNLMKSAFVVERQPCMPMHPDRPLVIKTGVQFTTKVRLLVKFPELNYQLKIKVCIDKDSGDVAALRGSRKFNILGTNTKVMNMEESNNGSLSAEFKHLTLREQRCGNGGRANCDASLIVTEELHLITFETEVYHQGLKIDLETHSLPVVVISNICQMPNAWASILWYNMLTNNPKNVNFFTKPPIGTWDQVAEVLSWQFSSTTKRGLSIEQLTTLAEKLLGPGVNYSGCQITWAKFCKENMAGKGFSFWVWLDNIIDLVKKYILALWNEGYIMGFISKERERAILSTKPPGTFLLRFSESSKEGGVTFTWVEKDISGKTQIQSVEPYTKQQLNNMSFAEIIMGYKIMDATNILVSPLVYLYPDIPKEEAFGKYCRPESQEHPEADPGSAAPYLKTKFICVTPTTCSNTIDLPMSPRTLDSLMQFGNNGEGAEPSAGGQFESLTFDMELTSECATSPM

Histone deacetylase 3 = Histone deacetylase 3 (Homo sapiens, UniProt O15379); experiment: Inhibition of recombinant human HDAC3 using Boc-Lys (acetyl)-AMC as substrate preincubated with compound for 1 hr followed by substrate addition and measured after 30 mins by microplate reader assay
Histone deacetylase 3, sequence (O15379 whole entry): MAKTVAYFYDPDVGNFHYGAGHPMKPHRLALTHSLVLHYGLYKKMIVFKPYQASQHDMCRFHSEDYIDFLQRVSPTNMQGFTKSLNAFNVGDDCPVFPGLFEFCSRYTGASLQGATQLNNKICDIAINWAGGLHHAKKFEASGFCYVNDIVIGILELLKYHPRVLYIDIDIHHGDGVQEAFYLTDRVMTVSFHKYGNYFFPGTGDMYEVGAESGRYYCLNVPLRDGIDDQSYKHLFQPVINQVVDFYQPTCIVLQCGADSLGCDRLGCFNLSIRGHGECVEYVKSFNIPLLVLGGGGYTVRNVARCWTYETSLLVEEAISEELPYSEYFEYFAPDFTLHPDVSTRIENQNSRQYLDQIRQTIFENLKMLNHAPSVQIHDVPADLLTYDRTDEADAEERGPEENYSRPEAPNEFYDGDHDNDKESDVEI

[2] = biological target: T1, Signal transducer and activator of transcription 3; experiment: Binding affinity to STAT3 (unknown origin) assessed as dissociation constant by SPR assay
A549 [3] = experiment: Induction of autophagy in human A549 cells transfected with mRFP-GFP-LC3 assessed as decrease in P62 protein level at 0.5 uM incubated for 12 hrs by Western blot analysis; type: functional, cell-based
A549 [4] = experiment: In vivo antitumor activity against human A549 cells xenografted in female BALB/c nu/nu mouse assessed as Ac-tubulin at 5 mg/kg, iv administered every 3 days for 9 days by Western blotting analysis; type: functional, organism-based; details: time 3.0 day
[5] = biological target: Signal transducer and activator of transcription 6 (Homo sapiens, UniProt P42226); experiment: Binding affinity to STAT6 (unknown origin) assessed as dissociation constant by SPR assay
[6] = biological target: T1, Signal transducer and activator of transcription 3; experiment: Binding affinity to recombinant human STAT3 using 5-FAM-G(pTyr)LPQTV-NH2 as substrate preincubated with compound for 1 hr followed by substrate addition and measured after 30 mins by fluorescent polarization based binding assay
HepG2 = experiment: Anticancer activity against human HepG2 cells assessed as cell viability incubated for 72 hrs using self assembled nanoparticle as source of compound by CCK-8 assay; type: functional, cell-based; details: HepG2, 72 h
A549 [7] = experiment: Induction of autophagy in human A549 cells transfected with mRFP-GFP-LC3 assessed as increase in yellow puncta at 0.5 uM incubated for 24 hrs by confocal microscopic analysis; type: functional, cell-based
[8] = Biodistribution in liver of nude mouse xenografted with A549 cells at 5 mg/kg, iv using chlorine e6 loaded self-assembled nanoparticle as source of compound incubated for 24 hrs by ex-vivo fluorescence based LC-MS/MS analysis; type: ADME, organism-based
A549 [9] = experiment: Induction of apoptosis in human A549 cells assessed as late apoptotic cells at 2 uM incubated for 24 hrs by Annexin V-FITC/PI staining based flow cytometric analysis (reference value: 2.18%); type: functional
[10] = Toxicity in female BALB/c nu/nu mouse xenografted with human A549 cells assessed as effect on kidney at 2.5 mg/kg, iv by H and E staining based analysis; type: organism-based; details: in vivo
HeLa = experiment: cells; type: functional, cell-based; details: Homo sapiens, 72 h
Description: Antiproliferative activity against human Hela cells assessed as inhibition of cell proliferation incubated for 72 hrs by CCK-8 assay

[11] = biological target: Class 1 histone deacetylase (Homo sapiens) (UniProt Q13547+O15379+Q92769+Q9BY41); experiment: Inhibition of class 1 HDAC in human A549 cells assessed as increase in Ac-histone H3 level at 0.5 uM incubated for 12 hrs by Western blot analysis; type: cell-based
Class 1 histone deacetylase (Homo sapiens), sequence (O15379 whole entry, looked up): as the sequence (O15379 whole entry) above
Class 1 histone deacetylase (Homo sapiens), sequence (Q13547 whole entry, looked up): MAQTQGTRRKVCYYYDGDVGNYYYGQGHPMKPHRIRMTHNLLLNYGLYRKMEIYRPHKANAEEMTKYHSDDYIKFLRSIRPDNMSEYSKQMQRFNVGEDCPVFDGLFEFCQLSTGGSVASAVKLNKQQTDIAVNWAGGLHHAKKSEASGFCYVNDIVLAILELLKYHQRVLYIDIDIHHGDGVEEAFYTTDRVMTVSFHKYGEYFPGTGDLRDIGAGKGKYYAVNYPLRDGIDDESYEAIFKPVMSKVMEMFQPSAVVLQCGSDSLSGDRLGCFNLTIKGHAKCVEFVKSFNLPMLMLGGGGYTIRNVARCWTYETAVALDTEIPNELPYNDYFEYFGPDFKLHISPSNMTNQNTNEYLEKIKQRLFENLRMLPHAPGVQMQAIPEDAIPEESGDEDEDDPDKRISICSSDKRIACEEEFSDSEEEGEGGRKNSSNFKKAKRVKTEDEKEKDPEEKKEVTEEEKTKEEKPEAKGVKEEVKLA
Class 1 histone deacetylase (Homo sapiens), sequence (Q92769 whole entry, looked up): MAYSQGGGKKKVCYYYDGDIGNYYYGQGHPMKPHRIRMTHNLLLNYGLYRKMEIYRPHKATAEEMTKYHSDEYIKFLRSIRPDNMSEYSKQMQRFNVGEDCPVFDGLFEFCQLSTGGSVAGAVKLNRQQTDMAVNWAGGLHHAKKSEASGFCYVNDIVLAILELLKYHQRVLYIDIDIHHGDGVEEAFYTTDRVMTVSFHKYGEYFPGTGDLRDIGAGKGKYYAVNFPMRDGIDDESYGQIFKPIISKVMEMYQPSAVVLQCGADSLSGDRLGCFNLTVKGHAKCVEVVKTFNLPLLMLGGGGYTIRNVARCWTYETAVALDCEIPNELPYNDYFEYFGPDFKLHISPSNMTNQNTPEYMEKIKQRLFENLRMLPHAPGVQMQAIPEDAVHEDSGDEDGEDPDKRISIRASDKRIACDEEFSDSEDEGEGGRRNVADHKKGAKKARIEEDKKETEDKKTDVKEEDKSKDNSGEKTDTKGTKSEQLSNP
Class 1 histone deacetylase (Homo sapiens), sequence (Q9BY41 whole entry, looked up): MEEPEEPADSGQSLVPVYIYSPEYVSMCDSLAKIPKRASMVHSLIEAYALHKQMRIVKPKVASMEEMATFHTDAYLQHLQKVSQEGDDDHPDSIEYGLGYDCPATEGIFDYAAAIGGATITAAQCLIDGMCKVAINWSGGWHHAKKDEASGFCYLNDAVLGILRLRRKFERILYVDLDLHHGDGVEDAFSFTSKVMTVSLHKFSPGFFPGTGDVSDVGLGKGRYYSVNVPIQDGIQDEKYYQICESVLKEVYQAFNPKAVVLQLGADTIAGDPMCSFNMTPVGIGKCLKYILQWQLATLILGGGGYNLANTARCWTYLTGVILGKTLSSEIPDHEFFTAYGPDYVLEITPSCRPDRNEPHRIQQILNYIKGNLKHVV

A549 [12] = experiment: In vivo antitumor activity against human A549 cells xenografted in female BALB/c nu/nu mouse assessed as reduction in tumor weight at 5 mg/kg, iv administered every 3 days for 18 days using self assembled nanoparticle as source of compound and measured every 3 days; details: time 3.0 day
[13] = Toxicity in female BALB/c nu/nu mouse xenografted with human A549 cells assessed as effect on liver at 2.5 mg/kg, iv by H and E staining based analysis; type: organism-based; details: in vivo
[14] = Drug uptake in human A549 cells assessed as increase in red fluorescence incubated for 4 hrs using chlorine e6 loaded self assembled nanoparticle as source of compound by fluorescence based flow cytometric analysis; type: ADME, cell-based; details: a549, 4 h
[15] = Toxicity in female BALB/c nu/nu mouse xenografted with human A549 cells assessed as effect on body weight at 5 mg/kg, iv using self assembled nanoparticle as source of compound and measured regularly; type: organism-based; details: in vivo
[16] = Toxicity in female BALB/c nu/nu mouse xenografted with human A549 cells assessed as effect on heart at 5 mg/kg, iv by H and E staining based analysis; type: organism-based; details: in vivo
[17] = Toxicity in female BALB/c nu/nu mouse xenografted with human A549 cells assessed as effect on liver at 5 mg/kg, iv by H and E staining based analysis; type: organism-based; details: in vivo
Histone deacetylase 7 = Histone deacetylase 7 (Homo sapiens, UniProt Q8WUI4); experiment: Inhibition of recombinant human HDAC7 using Boc-Lys (trifluroacetyl)-AMC as substrate preincubated with compound for 1 hr followed by substrate addition and measured after 30 mins by microplate reader assay
Histone deacetylase 7, sequence (Q8WUI4 whole entry): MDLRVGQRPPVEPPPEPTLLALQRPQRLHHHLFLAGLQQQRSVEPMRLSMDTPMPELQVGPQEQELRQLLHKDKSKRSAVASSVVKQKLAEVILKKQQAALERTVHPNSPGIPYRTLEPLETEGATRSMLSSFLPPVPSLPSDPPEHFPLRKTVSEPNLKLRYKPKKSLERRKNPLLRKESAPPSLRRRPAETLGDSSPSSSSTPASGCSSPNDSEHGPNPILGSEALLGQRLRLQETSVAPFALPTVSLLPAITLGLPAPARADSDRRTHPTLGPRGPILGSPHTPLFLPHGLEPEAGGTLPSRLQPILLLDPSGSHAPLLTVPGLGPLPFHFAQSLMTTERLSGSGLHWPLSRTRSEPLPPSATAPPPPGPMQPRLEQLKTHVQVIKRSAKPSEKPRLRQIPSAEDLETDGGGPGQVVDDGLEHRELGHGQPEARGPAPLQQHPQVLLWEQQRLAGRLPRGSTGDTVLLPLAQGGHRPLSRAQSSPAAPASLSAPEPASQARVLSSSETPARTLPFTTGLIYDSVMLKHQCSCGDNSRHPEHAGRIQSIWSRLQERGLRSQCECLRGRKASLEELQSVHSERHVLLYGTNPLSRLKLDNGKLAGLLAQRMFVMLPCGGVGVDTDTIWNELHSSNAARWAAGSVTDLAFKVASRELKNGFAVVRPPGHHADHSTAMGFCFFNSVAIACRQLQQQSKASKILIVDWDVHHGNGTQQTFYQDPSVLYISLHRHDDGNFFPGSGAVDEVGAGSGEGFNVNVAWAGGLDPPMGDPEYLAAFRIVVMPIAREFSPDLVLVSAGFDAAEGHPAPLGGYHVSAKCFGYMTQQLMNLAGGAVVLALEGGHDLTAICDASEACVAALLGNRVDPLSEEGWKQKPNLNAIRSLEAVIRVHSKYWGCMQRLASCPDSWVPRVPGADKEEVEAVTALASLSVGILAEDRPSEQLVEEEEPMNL

[18] = Binding affinity to STAT2 (unknown origin) assessed as dissociation constant by SPR assay; set-up: species or system Homo sapiens
Histone deacetylase 1 = Histone deacetylase 1 (Homo sapiens, UniProt Q13547); experiment: Inhibition of recombinant human HDAC1 using Boc-Lys (acetyl)-AMC as substrate preincubated with compound for 1 hr followed by substrate addition and measured after 30 mins by microplate reader assay
Histone deacetylase 1, sequence (Q13547 whole entry): as the sequence (Q13547 whole entry, looked up) above

[19] = Biodistribution in lung of nude mouse xenografted with A549 cells at 5 mg/kg, iv using chlorine e6 loaded self-assembled nanoparticle as source of compound incubated for 24 hrs by ex-vivo fluorescence based LC-MS/MS analysis; type: ADME, organism-based
[20] = Biodistribution in heart of nude mouse xenografted with A549 cells at 5 mg/kg, iv using chlorine e6 loaded self-assembled nanoparticle as source of compound incubated for 24 hrs by ex-vivo fluorescence based LC-MS/MS analysis; type: ADME, organism-based
A549 [21] = experiment: Anticancer activity against human A549 cells assessed as cell viability incubated for 72 hrs using self assembled nanoparticle as source of compound by CCK-8 assay; type: functional, cell-based; details: A549, 72 h
[22] = Toxicity in female BALB/c nu/nu mouse xenografted with human A549 cells assessed as effect on lung at 2.5 mg/kg, iv by H and E staining based analysis; type: organism-based; details: in vivo
A549 [23] = experiment: Induction of apoptosis in human A549 cells at 2 uM incubated for 24 hrs by Annexin V-FITC/PI staining based flow cytometric analysis; type: functional
A549 [24] = experiment: Induction of apoptosis in human A549 cells assessed as viable cells at 4 uM incubated for 24 hrs by Annexin V-FITC/PI staining based flow cytometric analysis (reference value: 95.08%); type: functional; details: read-out: Activity
A549 [25] = experiment: Induction of apoptosis in human A549 cells assessed as late apoptotic cells at 4 uM incubated for 24 hrs by Annexin V-FITC/PI staining based flow cytometric analysis (reference value: 2.18%); type: functional
Histone deacetylase 5 = Histone deacetylase 5 (Homo sapiens, UniProt Q9UQL6); experiment: Inhibition of recombinant human HDAC5 using Boc-Lys (trifluroacetyl)-AMC as substrate preincubated with compound for 1 hr followed by substrate addition and measured after 30 mins by microplate reader assay
Histone deacetylase 5, sequence (Q9UQL6 whole entry): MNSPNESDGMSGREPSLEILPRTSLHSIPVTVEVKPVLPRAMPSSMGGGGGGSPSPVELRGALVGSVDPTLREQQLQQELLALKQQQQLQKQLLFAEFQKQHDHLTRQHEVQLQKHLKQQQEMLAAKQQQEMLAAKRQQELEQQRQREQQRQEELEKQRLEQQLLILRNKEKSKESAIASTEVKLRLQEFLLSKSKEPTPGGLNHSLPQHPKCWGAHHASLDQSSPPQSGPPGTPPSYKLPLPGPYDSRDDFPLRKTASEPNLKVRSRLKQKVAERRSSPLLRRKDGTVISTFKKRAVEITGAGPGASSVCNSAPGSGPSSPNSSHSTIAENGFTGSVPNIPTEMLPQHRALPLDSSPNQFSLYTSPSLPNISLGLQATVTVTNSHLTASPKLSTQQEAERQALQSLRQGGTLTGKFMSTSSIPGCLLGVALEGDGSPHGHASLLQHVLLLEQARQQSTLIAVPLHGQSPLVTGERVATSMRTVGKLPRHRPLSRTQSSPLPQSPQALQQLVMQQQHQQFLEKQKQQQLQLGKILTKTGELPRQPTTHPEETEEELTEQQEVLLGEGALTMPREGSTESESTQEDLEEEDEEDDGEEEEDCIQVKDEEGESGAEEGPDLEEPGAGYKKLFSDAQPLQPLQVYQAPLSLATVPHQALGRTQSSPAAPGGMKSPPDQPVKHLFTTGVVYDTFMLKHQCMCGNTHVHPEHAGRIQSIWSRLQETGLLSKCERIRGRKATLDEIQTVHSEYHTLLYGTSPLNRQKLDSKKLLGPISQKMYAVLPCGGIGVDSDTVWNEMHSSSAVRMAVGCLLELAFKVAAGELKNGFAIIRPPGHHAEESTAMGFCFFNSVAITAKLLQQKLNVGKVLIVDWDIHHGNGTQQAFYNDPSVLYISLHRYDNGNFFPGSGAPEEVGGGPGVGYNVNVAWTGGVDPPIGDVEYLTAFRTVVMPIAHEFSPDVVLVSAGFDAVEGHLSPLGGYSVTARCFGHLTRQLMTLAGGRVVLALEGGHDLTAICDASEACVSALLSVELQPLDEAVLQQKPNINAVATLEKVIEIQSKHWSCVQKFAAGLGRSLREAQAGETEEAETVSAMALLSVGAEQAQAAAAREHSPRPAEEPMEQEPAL

[26] = Drug accumulation in nude mouse xenografted with A549 cells assessed as increase in fluorescence at 5 mg/kg, iv using chlorine e6 loaded self-assembled nanoparticle as source of compound incubated for 24 hrs by ex-vivo fluorescence based analysis; type: ADME, organism-based
[27] = Toxicity in female BALB/c nu/nu mouse xenografted with human A549 cells assessed as effect on lung at 5 mg/kg, iv by H and E staining based analysis; type: organism-based; details: in vivo

inhibition [1]: Active
IC50 (Histone deacetylase 3): 51.9 nM
Kd [2]: 2520 nM
Kd [5]: Not Active
IC50 [6]: 350 nM
Activity ([6]; time 1.5 hrs): Dose-Dependent Effect
IC50 (HepG2): 170 nM
Drug uptake [8]: Active
IC50 (HeLa): 130 nM
inhibition [11]: Active
Drug uptake [14]: Active
IC50 (Histone deacetylase 7): > 10000 nM
Kd [18]: Not Active
IC50 (Histone deacetylase 1): 62 nM
Drug uptake [19]: Active
Drug uptake [20]: Active
IC50 (A549 [21]): 69 nM
IC50 (Histone deacetylase 5): > 10000 nM
Drug uptake [26]: Active
SMILES: C=C1C(=O)O[C@@H]2C[C@@]3(C)CC[C@@H](OC(=O)[C@H](C)NC(=O)c4ccc(/C=C/C(=O)NO)cc4)C(=C)[C@@H]3C[C@H]12
Activity (A549 [3]): Active
Activity (A549 [4]): Active
Activity (A549 [7]): Active
Activity (A549 [9]): 11.86%
Activity [10]: Non-Toxic
Activity (A549 [12]): Active
Activity [13]: Non-Toxic
Activity [15]: Non-Toxic
Activity [16]: Non-Toxic
Activity [17]: Non-Toxic
Activity [22]: Non-Toxic
Activity (A549 [23]): 15%
viability at 4 µM (A549 [24]): 56.2%
Activity (A549 [25]): 35.53%
Activity [27]: Non-Toxic
